Among the data in publication PMC11106541, “Library screening identifies commercial drugs as potential structure correctors of abnormal apolipoprotein A-I” (Journal of Lipid Research, 2024) are EC50 values, retold here.

The target of assay [1] is T1, apoA-I[L178P] (Homo sapiens, UniProt P02647, L202P).
T1 construct: gene APOA1; recombinant lipid-free apoA-I (243 residues) expressed in E. coli, thioredoxin/His tag removed with 3C protease
In words: ITC (also Tm shift by CD thermal denaturation, EC50 […]; TSA; ANS). The class given is binding.

For assay [2], the target named is T1, apoA-I[L178P]. The description is as above. The class given is binding. This is another data set of the same source.

Like-named read-outs stand apart in the source and are kept apart here.

T1 sequence (P02647 25-267 L202P): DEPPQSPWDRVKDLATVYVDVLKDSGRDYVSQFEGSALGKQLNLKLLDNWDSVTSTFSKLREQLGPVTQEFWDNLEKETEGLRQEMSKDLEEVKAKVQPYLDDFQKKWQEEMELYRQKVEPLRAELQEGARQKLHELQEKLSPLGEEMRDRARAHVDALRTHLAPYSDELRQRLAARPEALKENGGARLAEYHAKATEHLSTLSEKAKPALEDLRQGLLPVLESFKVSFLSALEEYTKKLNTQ

With `CC(C)c1c(C(=O)Nc2ccccc2)c(-c2ccccc2)c(-c2ccc(F)cc2)n1CC[C@@H](O)C[C@@H](O)CC(=O)O` [C8, atorvastatin], on apoA-I[L178P] [1], the EC50 (as a rule, the midpoint of the concentration-response curve) was 400 µM.

For `C=C(c1ccc(C(=O)O)cc1)c1cc2c(cc1C)C(C)(C)CCC2(C)C` [C9-p1, bexarotene], at apoA-I[L178P] [2], the EC50 amounted to 98 µM.
